Measured values reported in patent publication US7582604B2, “Template-fixed peptidomimetics with antibacterial activity” (Polyphor Ltd., priority 2002, dated 2009).
≈ marks a conversion by molar mass, not a printed value. Where a SMILES comes first, the peptide text is derived from it. [ ]: non-standard residue; d: D form.

Tests used:
[1] = tested on: Staphylococcus aureus ATCC 29213; experiment: MIC, NCCLS broth microdilution in Mueller-Hinton broth; assay type: cell-based; conditions: 18-20 hours at 37° C.
Description: (§1) Lyophilized peptides were weighed on a Microbalance (Mettler MT5) and dissolved in sterile water containing 0.01% acetic acid.
(§2) The selective antimicrobial activities of the peptides were determined by the standard NCCLS broth microdilution method (see ref 1, below) examined in sterile 96-wells plates (Nunclon polystyrene microtiter plates) in a total volume of 100 μl. Innocula of the microorganisms were prepared with 0.5 Mcfarland standard and then diluted into Müeller-Hinton (MH^+) broth to give appr. 10^6 colony forming units (CFU)/rnl for bacteria Aliquots (50 μl) of the innocula were added to 50 μl of MH broth containing the peptide in serial twofold dilutions. For the screening of the peptides displaying selectivity, the following microorganisms were used: Escherichia coli (ATCC 25922), Pseudomonas aeruginosa (P. aeruginosa) (ATCC 27853), Staphylococcus aureus (ATCC 29213 and ATCC 25923), and clinical isolates of Pseudomonas aeruginosa (P. aeruginosa) V02 16085 and Acinetobacter (Acinetobacter V04 19905/1, Acinetobacter V12 21143/1 and Acinetobacter V12 21193/1). Antimicrobial activities of the peptides were expressed as the minimal inhibitory concentration (MIC) in μg/ml at which no visible growth was observed after 18-20 hours of incubation of the microtiter plates at 37° C.

[2] = tested on: human red blood cells (hRBC); assay type: cell-based; conditions: red cells of human, 1 h
Description: The peptides were tested for their hemolytic activity against human red blood cells (hRBC). Fresh hRBC were washed three times with phosphate buffered saline (PBS) by centrifugation for 10 min at 2000×g. Peptides at a concentration of 100 μg/ml were incubated with 20% v/v hRBC for 1 hour at 37° C. The final erythrocyte concentration was appr. 0.9×10^9/ml. A value of 0% resp. 100% cell lysis was determined by incubation of the hRBC in the presence of PBS alone and resp. 0.1% Triton X-100 in H2O. The samples were centrifuged and the supernatant was 20 fold diluted in PBS buffer and the optical density (OD) of the sample at […] was measured. The 100% lysis value (OD540H2O) gave an OD of approximately 1.6-2.0. Percent hemolysis was calculated as follows: […]

[3] = tested on: Acinetobacter V12 21143/1 (clinical isolate); assay type: cell-based
Description: as §1, §2
(§3) Salt sensitivity of the peptides was tested by the microtiter serial dilution assay as described above. Only MH broth was replaced by MH broth containing 0.9% NaCl.

[4] = tested on: Acinetobacter V12 21193/1 (clinical isolate); assay type: cell-based
Description: as §1, §2, §3

[5] = tested on: Escherichia coli ATCC 25922; assay type: cell-based
Description: as §1, §2, §3

[6] = tested on: Escherichia coli ATCC 43827; assay type: cell-based
[7] = tested on: P. aeruginosa ATCC 278853; assay type: cell-based, Pseudomonas aeruginosa
Description: as §1, §2, §3

[8] = tested on: P. aeruginosa VO216085 (clinical isolate); assay type: cell-based, Pseudomonas aeruginosa
Description: as §1, §2, §3

Compound	Minimal inhibitory concentration (MIC) Staphylococcus attreus ATCC 29213 [1] [µg/mL]	Hemolysis at 100 μg/ml (percentage hemolysis) [2] [%]	Minimal inhibitory concentration (MIC) Acinetobacter V12 21143/1 [3] [µg/mL]	Minimal inhibitory concentration (MIC) Acinetobacter V12 21193/1 [4] [µg/mL]	Minimal inhibitory concentration (MIC) Escherichia coli ATCC 25922 [5] [µg/mL]	Minimal inhibitory concentration (MIC) Escherichia coli ATCC 43827 [6] [µg/mL]	Minimal inhibitory concentration (MIC) P. aeruginosa ATCC 278853 [7] [µg/mL]	Minimal inhibitory concentration (MIC) P. aeruginosa VO216085 [8] [µg/mL]
CC(C)C[C@@H]1NC(=O)[C@H](Cc2c[nH]c3ccccc23)NC(=O)[C@H](CCCNC(=N)N)NC(=O)[C@@H]2CCCN2C(=O)[C@H]2CCCN2C(=O)[C@H](CCCNC(=N)N)NC(=O)[C@H](Cc2ccc(O)cc2)NC(=O)[C@H](Cc2ccc(O)cc2)NC(=O)[C@H](CCCCN)NC(=O)[C@H](Cc2c[nH]c3ccccc23)NC(=O)[C@H](CCCNC(=N)N)NC(=O)[C@H](CCCNC(=N)N)NC(=O)[C@H](CCCCN)NC(=O)[C@H](C(C)C)NC1=O [compound 5] (cyclo(RWLVKRRWKYYR[dP]P))	100 (≈ 50.3 µM)	0.5						
CC(C)C[C@@H]1NC(=O)[C@H](Cc2c[nH]c3ccccc23)NC(=O)[C@H](CCCNC(=N)N)NC(=O)[C@@H]2CCCN2C(=O)[C@H]2CCCN2C(=O)[C@H](CCCNC(=N)N)NC(=O)[C@H](CCC(N)=O)NC(=O)[C@H](Cc2ccc(O)cc2)NC(=O)[C@H](CCCCN)NC(=O)[C@H](Cc2c[nH]c3ccccc23)NC(=O)[C@H](CCCNC(=N)N)NC(=O)[C@H](CCCNC(=N)N)NC(=O)[C@H](CCCCN)NC(=O)[C@H](CCCCN)NC1=O [compound 7] (cyclo(RWLKKRRWKYQR[dP]P))	200 (≈ 101 µM)	0.7						
CC(C)C[C@@H]1NC(=O)[C@H](Cc2c[nH]c3ccccc23)NC(=O)[C@H](CCCNC(=N)N)NC(=O)[C@@H]2CCCN2C(=O)[C@H]2CCCN2C(=O)[C@H](CCCNC(=N)N)NC(=O)[C@H](Cc2ccc(O)cc2)NC(=O)[C@H](Cc2ccc(O)cc2)NC(=O)[C@H](C(C)C)NC(=O)[C@H](Cc2c[nH]c3ccccc23)NC(=O)[C@H](CCCNC(=N)N)NC(=O)[C@H](CCCNC(=N)N)NC(=O)[C@H](CCCCN)NC(=O)[C@H](CCCCN)NC1=O [compound 6] (cyclo(RWLKKRRWVYYR[dP]P))	100 (≈ 50.3 µM)	0.5						
CC(C)C[C@@H]1NC(=O)[C@H](Cc2c[nH]c3ccccc23)NC(=O)[C@H](CCCNC(=N)N)NC(=O)[C@@H]2CCCN2C(=O)[C@H]2CCCN2C(=O)[C@H](CCCNC(=N)N)NC(=O)[C@H](C(C)C)NC(=O)[C@H](Cc2ccc(O)cc2)NC(=O)[C@H](CCCCN)NC(=O)[C@H](Cc2c[nH]c3ccccc23)NC(=O)[C@H](CCCNC(=N)N)NC(=O)[C@H](CCCNC(=N)N)NC(=O)[C@H](CCCCN)NC(=O)[C@H](CCCCN)NC1=O [Ex. 2] (cyclo(RWLKKRRWKYVR[dP]P))	100 (≈ 51.2 µM)	0.5	12.5 (≈ 6.41 µM)	25 (≈ 12.8 µM)	100 (≈ 51.2 µM)	100 (≈ 51.2 µM)	9.4 (≈ 4.82 µM)	6.2 (≈ 3.18 µM)
CC(C)C[C@@H]1NC(=O)[C@H](Cc2c[nH]c3ccccc23)NC(=O)[C@H](CCCNC(=N)N)NC(=O)[C@@H]2CCCN2C(=O)[C@H]2CCCN2C(=O)[C@H](CCCNC(=N)N)NC(=O)[C@H](Cc2ccc(O)cc2)NC(=O)[C@H]([C@@H](C)O)NC(=O)[C@H](CCCCN)NC(=O)[C@H](Cc2c[nH]c3ccccc23)NC(=O)[C@H](CCCNC(=N)N)NC(=O)[C@H](CCCNC(=N)N)NC(=O)[C@H](CCCCN)NC(=O)[C@H](CCCCN)NC1=O [compound 3] (cyclo(RWLKKRRWKTYR[dP]P))	100 (≈ 51.2 µM)	1.5	25 (≈ 12.8 µM)	100 (≈ 51.2 µM)	200 (≈ 102 µM)	200 (≈ 102 µM)	200 (≈ 102 µM)	9.4 (≈ 4.81 µM)
CC(C)C[C@@H]1NC(=O)[C@H](Cc2c[nH]c3ccccc23)NC(=O)[C@H](CCCNC(=N)N)NC(=O)[C@@H]2CCCN2C(=O)[C@H]2CCCN2C(=O)[C@H](CCCNC(=N)N)NC(=O)[C@H](CC(C)C)NC(=O)[C@H](Cc2ccc(O)cc2)NC(=O)[C@H](CCCCN)NC(=O)[C@H](Cc2c[nH]c3ccccc23)NC(=O)[C@H](CCCNC(=N)N)NC(=O)[C@H](CCCNC(=N)N)NC(=O)[C@H](CCCCN)NC(=O)[C@H](CCCCN)NC1=O [compound 8] (cyclo(RWLKKRRWKYLR[dP]P))	100 (≈ 50.9 µM)	0.4						
CC(C)C[C@@H]1NC(=O)[C@H](Cc2c[nH]c3ccccc23)NC(=O)[C@H](CCCNC(=N)N)NC(=O)[C@H](CCCNC(=N)N)NC(=O)[C@H](CCCCN)NC(=O)[C@H](CCCCN)NC(=O)[C@H](CC(C)C)NC(=O)[C@H](Cc2c[nH]c3ccccc23)NC(=O)[C@H](CCCNC(=N)N)NC(=O)[C@@H]2CCCN2C(=O)[C@H]2CCCN2C(=O)[C@H](CCCNC(=N)N)NC(=O)[C@H](Cc2ccc(O)cc2)NC(=O)[C@H](Cc2ccc(O)cc2)NC1=O [compound 1] (cyclo(RWLKKRRWLYYR[dP]P))	25 (≈ 12.5 µM)	0.5	6.2 (≈ 3.1 µM)	6.2 (≈ 3.1 µM)	100 (≈ 50 µM)	200 (≈ 100 µM)	50 (≈ 25 µM)	50 (≈ 25 µM)
CC(C)C[C@@H]1NC(=O)[C@H](Cc2c[nH]c3ccccc23)NC(=O)[C@H](CCCNC(=N)N)NC(=O)[C@@H]2CCCN2C(=O)[C@H]2CCCN2C(=O)[C@H](CCCNC(=N)N)NC(=O)[C@H](Cc2ccc(O)cc2)NC(=O)[C@H](CCC(N)=O)NC(=O)[C@H](CCCCN)NC(=O)[C@H](Cc2c[nH]c3ccccc23)NC(=O)[C@H](CCCNC(=N)N)NC(=O)[C@H](CCCNC(=N)N)NC(=O)[C@H](CCCCN)NC(=O)[C@H](CCCCN)NC1=O [compound 4] (cyclo(RWLKKRRWKQYR[dP]P))	100 (≈ 50.5 µM)	0.6	12.5 (≈ 6.31 µM)	25 (≈ 12.6 µM)	100 (≈ 50.5 µM)	200 (≈ 101 µM)	6.2 (≈ 3.13 µM)	3.1 (≈ 1.57 µM)
